Test results published in PubChem BioAssay (NCI).
Where “and” joins values, the source holds several entries; their conditions need not be identical. Equal values may be shown once.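 Step 1: Grow cells in 96-well plates. Step 2: Expose to compound for 48 hours at 5 concentrations. Step 3: Interpolate endpoints linearly; if unreached, use highest concentration. Abbreviation: GI50, concentration required for 50% inhibition of growth. The concentration for full growth arrest is given as TGI.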

How the values were obtained:
Test in all cases: NCI-60 cell line screen, 48 h
MALME-3M melanoma = system: MALME-3M melanoma
NCI-H226 lung = system: NCI-H226 lung
KM12 colon = system: KM12 colon
EKVX NSCLC = system: EKVX NSCLC
SF-268 CNS = system: SF-268 CNS
UACC-62 melanoma = system: UACC-62 melanoma
IGROV1 ovarian = system: IGROV1 ovarian
U251 CNS = system: U251 CNS
UACC-257 melanoma = system: UACC-257 melanoma
SK-OV-3 ovarian = system: SK-OV-3 ovarian

Row | SMILES | GI50 (MALME-3M melanoma) | TGI (MALME-3M melanoma) | GI50 (NCI-H226 lung) | TGI (NCI-H226 lung) | GI50 (KM12 colon) | TGI (KM12 colon) | GI50 (EKVX NSCLC) [µM] | TGI (EKVX NSCLC) [µM] | GI50 (SF-268 CNS) [µM] | TGI (SF-268 CNS) [µM] | GI50 (UACC-62 melanoma) | TGI (UACC-62 melanoma) [µM] | GI50 (IGROV1 ovarian) | TGI (IGROV1 ovarian) [µM] | GI50 (U251 CNS) | TGI (U251 CNS) [µM] | GI50 (UACC-257 melanoma) | TGI (UACC-257 melanoma) [µM] | GI50 (SK-OV-3 ovarian) | TGI (SK-OV-3 ovarian) [µM]
1 | CC(C)c1ccc(-c2cc(-c3cn[nH]c3-c3ccccn3)ccn2)cc1 | 8.83 µM | > 25 µM | 12.1 µM | > 25 µM | 9.83 µM | > 25 µM | 11.3 | > 25 | 14.9 | > 25 | 17.2 µM | > 25 | > 23.3 µM | > 25 | 11.8 µM | > 25 | > 25 µM | > 25 | > 23.4 µM | > 25
2 | CCOC(=O)C1CCN(S(=O)(=O)/N=C2/NC(=O)NC2=C(Cl)Cl)CC1 | 1.7 µM | 3.48 µM | 2.86 µM | 9.94 µM | 0.254 µM | 10.5 µM | 1.99 | 4.79 | 1.93 | 7.43 | 1.71 µM | 3.27 | 1.91 µM | 3.93 | 1.9 µM | 3.47 | 2.38 µM | 7.24 | 9.94 µM | 21.7
3 | COc1ccc(C2=C(Cl)c3cc(OC)c(OC)cc3C2Cl)cc1 (stereo not given) | – | 46.9 µM | – | 66 µM | – | 26.4 µM | – | 66.5 | – | 36 | – | 31.4 | – | 35.7 | – | 26.6 | – | 39.6 | – | 34.3
4 | Cn1cc(C2(C)CC(C)(C)c3c2n(C)c2ccccc32)c2ccccc21 (stereo not given) | – | > 100 µM | – | > 100 µM | – | > 100 µM | – | > 100 | – | > 100 | – | > 100 | – | > 100 | – | > 100 | – | > 100 | – | > 100
5 | CC(C)c1c(O)c(O)c2c(c1O)C(=O)C(O)=C1C(C)(C)CCC[C@@]12C | – | 15.9 µM | – | 7.88 µM | – | 12.2 µM | – | 11.5 | – | 20 | – | 16.1 | – | 13.9 | – | 11.1 | – | 8.61 | – | 15.6
6 | Clc1cc(Cl)c2ns[s+]c2c1Cl | – | > 100 µM | – | > 100 µM | – | > 100 µM | – | > 100 | – | > 100 | – | > 100 | – | > 100 | – | > 100 | – | > 100 | – | > 100
7 | Cc1cc(C(=O)Nc2ccc3cc(CN4CCOCC4)ccc3n2)c(C)n1-c1ccccc1 | 1.89 µM | 8.66 µM | 0.374 µM | 5.92 µM | 1.68 µM | 4.66 µM | 1.38 | > 100 | 3.35 | 35.7 | 1.38 µM | 3.88 | 3.92 µM | 44.8 | 3.78 µM | > 100 | 1.27 µM | 4.07 | 4.54 µM | 40.2
8 | CCNCCNc1cc(-c2ccc(C(F)(F)F)cc2)c(C#N)c2nc3ccccc3n12 | 1.74 µM | 3.34 µM | 1.7 µM | 3.53 µM | 1.51 µM | 3.07 µM | 1.62 | 3.07 | 1.48 | 3.04 | 0.496 µM | 1.82 | 1.45 µM | 2.99 | 0.466 µM | 1.61 | 2.18 µM | 3.83 | 1.66 µM | 3.17
9 | COc1ccc(C(=O)c2cc(OC)c(OC)c(OC)c2)cc1/C=C/C(=O)c1ccc(F)cc1 | 2.76 µM | 8.87 µM | 3.57 µM | 18.1 µM | 2.79 µM | 8.07 µM | 11.1 | 31.4 | 3.86 | 16.1 | 2.01 µM | 5.52 | 2.59 µM | 6.73 | 1.85 µM | 3.54 | 12.3 µM | 49.7 | 17.9 µM | 73.1
10 | COc1ccc(-c2nc3ccccn3c2/C=C/C(=O)c2cc(OC)c(OC)c(OC)c2)cc1OC | 2.36 µM | 7.34 µM | 6.1 µM | 40.6 µM | 2.52 µM | 11.4 µM | 1.71 | > 100 | 3.58 | 65.2 | 4.86 µM | 22.1 | 3.03 µM | 12.1 | 2.91 µM | 65.5 | 3.24 µM | 15.4 | 4.92 µM | > 100
11 | NS(=O)(=O)c1ccc(-c2ccc3c(NC(=O)C4CC4)n[nH]c3c2)cc1 | > 25 µM | > 25 µM | > 25 µM | > 25 µM | > 25 µM | > 25 µM | > 25 | > 25 | > 25 | > 25 | > 25 µM | > 25 | > 25 µM | > 25 | > 25 µM | > 25 | > 25 µM | > 25 | > 25 µM | > 25
12 | Nc1nc(Nc2cccnc2)sc1C(=O)c1ccccc1F | 3.29 µM | 12.4 µM | 2.67 µM | 31.4 µM | 3.06 µM | 32.5 µM | 2.6 | 13.9 | 3.24 | 25.8 | 1.78 µM | 5.34 | 2.17 µM | > 29.1 | 2.71 µM | > 100 | 4.29 µM | 40.1 | 15.7 µM | > 100
13 | CC1=CC(C)(C)N=C2SC(c3ccc(N)cc3)=NN12 | – | > 100 µM | – | > 100 µM | – | > 100 µM | – | > 100 | – | > 100 | – | > 100 | – | > 100 | – | > 100 | – | > 100 | – | > 100
14 | CC1=CC(=O)C=CC1=O | 13.1 µM and 13.7 µM | 29.7 µM and 27.8 µM | 20.4 µM and 33.1 µM | 48.6 µM and 240 µM | 14.1 µM and 16.5 µM | 27.7 µM and 32.1 µM | 17 | 39.6 | 16.5 | 31.2 | 28.2 µM and 13.7 µM | 27.2 | 18.1 µM and 18.2 µM | 43 | 57.4 µM and 15.4 µM | 28.9 | 35.9 µM and 17.4 µM | 33.9 | 37.5 µM and 25.5 µM | 93.8
15 | CCOC(=O)/C(C)=C(/O)C(=O)OCC | – | > 100 µM | – | > 100 µM | – | > 100 µM | – | > 100 | – | > 100 | – | > 100 | – | > 100 | – | > 100 | – | > 100 | – | > 100
